This note sets out measurements from patent US20240139188A1, “Arylamide Compounds For Treatment And Prevention Of Fungal Infections” (priority 2022, published 2024).

In brackets after ≈: the same amount, converted by molar mass. Read-outs that look alike come from different tables or passages of the source.

One experiment deals with Exserohilum species. Description: In vitro susceptibility (MIC), macrobroth dilution. The format is cell-based. The conditions noted are these: Exserohilum species 19-48.
Another experiment deals with Candida krusei. Description: In vitro susceptibility (MIC), macrobroth dilution. The conditions noted are these: Pichia kudriavzevii, Candida krusei 03-287 (fluconazole-resistant). In kind it is cell-based.
The next experiment has as its system C. auris. Briefly: BRI+CAS against yeasts, colony forming units. The conditions noted are these: plating after 48 hours.
The test system of a further experiment is Mucorales Mucor species. Briefly: In vitro susceptibility (MIC), macrobroth dilution. In kind it is cell-based. The note with it: Mucor.
Experiment [1] has as its system Mucorales Unspeciated zygomycete. Briefly: In vitro susceptibility (MIC), macrobroth dilution. The format is cell-based. The conditions noted are these: Mucorales Unspeciated zygomycete 07-140.
Experiment [2] has as its system C. albicans. Briefly: BRI+CAS against yeasts, colony forming units. The conditions noted are these: plating after 48 hours.
Protocol: (§1) Combination of Brilacidin and caspofungin against yeasts: For measuring the effect of the combination BRI+CAS against yeast fungal pathogens, two methods were used: (i) metabolic activity by XTT-assay and (ii) colony forming units (CFUs). For the first method, C. neoformans, C. albicans, and C. auris 10^4 cells were inoculated in RPMI-1640 supplemented with CAS 0 to 32 μg/ml (for C. neoformans) and 0 to 1 μg/ml (for Candida spp.) or the same concentrations of CAS combined with BRI 0.625 μM (for C. neoformans), BRI 20 μM (for C. albicans), and BRI 10 μM (for C. auris). […] XTT-assays were also used for C. albicans caspofungin resistant strains but with CAS 0.5 μg/ml combined with BRI 5, 10 or 20 μM. The same experimental design was used for the CFUs determination, except that after 48 hours the cells present in the wells were plated on YPD (yeast extract 10g, peptone 20g, dextrose 20g, agar 20 g, water 1000 mL) and the plates were incubated at 30° C. for 24-48 hours for determining the survival percentage.
For a further experiment, the system named is Cryptococcus neoformans. Description: In vitro susceptibility (MIC), macrobroth dilution. In kind it is cell-based. The note with it: Cryptococcus neoformans, C. neoformans CN9759, drug alone.
For the next experiment, the system named is Aspergillus lentulus. Description: In vitro susceptibility (MIC), macrobroth dilution. The conditions noted are these: Aspergillus lentulus 14-39. The format is cell-based.
A further experiment has as its system Aspergillus fumigatus. Description: In vitro susceptibility (MIC), macrobroth dilution. In kind it is cell-based. The conditions noted are these: for MIC50 / MIC: Aspergillus fumigatus.
Experiment [3] relates to A. fumigatus. Description: Fungal burden, chemotherapeutic murine model of IPA. In kind it is in vivo, BALB/c mice. The conditions noted are these: 3 days post-infection, vs non-treated mice. How it is done:
Fungal burden: Inbred female mice (BALB/c strain; body weight, 20-22 g) were housed in vented cages containing five animals. Mice were immunosuppressed with cyclophosphamide (150 mg per kg of body weight), which was administered intraperitoneally on days −4, −1 and 2 prior to and post infection (infection day is “day 0”). Hydrocortisonacetate (200 mg/kg body weight) was injected subcutaneously on day −3. Mice (5 mice per group) were anesthetized by halothane inhalation and infected by intranasal instillation of 20 μL of 1.0×10^6 conidia of A. fumigatus Δku80 pyrG^+ (wild-type) (the viability of the administered inoculum was determined by incubating a serial dilution of the conidia on MM medium, at 37° C.). As a negative control, a group of 5 mice received PBS only. […]
DNA quantity and quality were assessed using a NanoDrop 2000 spectrophotometer (Thermo Scientific). Quantitative real-time PCRs were performed using 400 ng of total DNA from each sample, and primers to amplify the 18S rRNA region of A. fumigatus and an intronic region of mouse GAPDH (glyceraldehyde-3-phosphate dehydrogenase). Six-point standard curves were calculated using serial dilutions of gDNA from A. fumigatus strain and the uninfected mouse lung. Fungal and mouse DNA quantities were obtained from the threshold cycle (Ct) values from an appropriate standard curve.

Experiment [4] relates to A. fumigatus. Description: Alamar blue metabolic activity assay. The format is cell-based, Aspergillus fumigatus. The conditions noted are these: ΔmpkA mutant, BRI 20 μM, 48 hours.
In another experiment the test system is Candida albicans. Briefly: In vitro susceptibility (MIC), macrobroth dilution. The note with it: Candida albicans, C. albicans 5, drug alone. The format is cell-based.
Another experiment concerns Aspergillus niger. Briefly: In vitro susceptibility (MIC), macrobroth dilution. In kind it is cell-based. The note with it: Aspergillus niger 22-4.
For a further experiment, the system named is Lomentospora prolificans. Description: In vitro susceptibility (MIC), macrobroth dilution. The format is cell-based.
Another experiment relates to Candida lusitaniae. Briefly: In vitro susceptibility (MIC), macrobroth dilution. The format is cell-based. The note with it: Clavispora lusitaniae, Candida lusitaniae 22-16.
The test system of the next experiment is Torulopsis glabrata. Briefly: In vitro susceptibility (MIC), macrobroth dilution. The format is cell-based. The conditions noted are these: Nakaseomyces glabratus, Torulopsis glabrata 22-21.
Experiment [5] has as its system C. albicans. Briefly: BRI+CAS against yeasts, XTT metabolic activity. The conditions noted are these: absence of BRI.
Experiment [6] relates to A. fumigatus conidia infecting A549 pulmonary cells. Description: Killing assay in infected A549 cells. In kind it is cell-based, Aspergillus fumigatus. The note with it: monotherapy. How it is done: Killing assay: The type II pneumocyte cell line A549 was cultured using DMEM (ThermoFischer Scientific, Paisley. […] After 24 hours of incubation in 5% CO2 the culture media was removed, and 2 ml of sterile water was added to the wells. A P1000 tip was then used to scrape away the cell monolayer and the cell suspension was collected. This suspension was then diluted 1:1000 and 100 μl was plated on Sabouraud Dextrose Agar Media before the plates were incubated a 37° C. overnight. The numbers of CFUs were determined after 24 hours of growth. A volume of 50 μl of the inoculum adjusted to 103/ml was also plated on SAB agar to correct CFU counts. The CFU percentage for each sample was calculated and the results were plotted using Graphpad Prism (GraphPad Software, Inc., La Jolla, CA, USA).

Setting [7] is: read-out: 50% Inhibition BRI (MIC50).
[8] abbreviates: read-out: 100% Inhibition BRI (MIC100).
[9] abbreviates: lowest concentration causing 50% decrease in growth vs untreated control, read-out: MIC50.
Where [10] appears, read: lowest concentration without growth, read-out: MIC100.

Protocol for C. auris: as §1

As to `N=C(N)NCCCCC(=O)Nc1cc(C(F)(F)F)cc(NC(=O)c2cc(C(=O)Nc3cc(C(F)(F)F)cc(NC(=O)CCCCNC(=N)N)c3OC3CCNC3)ncn2)c1OC1CCNC1` (stereo not drawn) [BRI, brilacidin], the MIC50 with Exserohilum species (setting [7]) came out at 1 µg/mL (≈ 1.07 µM); with Candida krusei (setting [7]), 8 µg/mL (≈ 8.54 µM); in the experiment on Mucorales Mucor species (Mucor sp. 13-127, drug alone, lowest concentration causing 50% decrease in growth vs untreated control, read-out: MIC50), 4 µg/mL (≈ 4.27 µM); in experiment [1] (setting [7]), 2 µg/mL (≈ 2.13 µM); in the experiment with Cryptococcus neoformans (setting [9]) it was 1 µg/mL (≈ 1.07 µM); in the experiment with Aspergillus lentulus (setting [7]), 32 µg/mL (≈ 34.2 µM). Moreover, the MIC50 with Aspergillus fumigatus (A. fumigatus 10AF, drug alone, lowest concentration causing 50% decrease in growth vs untreated control, read-out: MIC50) is 64 µg/mL (≈ 68.3 µM); with Aspergillus fumigatus (A. fumigatus 21-23, drug alone, lowest concentration causing 50% decrease in growth vs untreated control, read-out: MIC50) it was 64 µg/mL (≈ 68.3 µM); in the experiment with Aspergillus fumigatus (setting [7]), above 64 µg/mL; in the experiment with Candida albicans (setting [9]), 4 µg/mL (≈ 4.27 µM); in the experiment with Aspergillus niger (setting [7]), 8 µg/mL (≈ 8.54 µM); in the experiment on Lomentospora prolificans (setting [7]), 4 µg/mL (≈ 4.27 µM). Also, the MIC50 amounted to 8 µg/mL (≈ 8.54 µM) with Candida lusitaniae (setting [7]) and 64 µg/mL (≈ 68.3 µM) in the experiment with Torulopsis glabrata (setting [7]). For the same molecule, the MIC came to 16 µg/mL (≈ 17.1 µM) in the experiment with Exserohilum species (setting [8]); 16 µg/mL (≈ 17.1 µM) in the experiment on Candida krusei (setting [8]); 64 µg/mL (≈ 68.3 µM) in the experiment with Mucorales Mucor species (Mucor sp. 13-127, drug alone, lowest concentration without growth, read-out: MIC100); 32 µg/mL (≈ 34.2 µM) in the experiment on Mucorales Mucor species (Mucorales Mucor species, read-out: 100% Inhibition BRI (MIC100)); 16 µg/mL (≈ 17.1 µM) in [1] (setting [8]); 8 µg/mL (≈ 8.54 µM) in the experiment on Cryptococcus neoformans (setting [10]). In addition, the MIC was above 64 µg/mL with Aspergillus lentulus (setting [8]); above 64 µg/mL in the experiment with Aspergillus fumigatus (A. fumigatus 10AF, drug alone, lowest concentration without growth, read-out: MIC100); above 64 µg/mL in the experiment on Aspergillus fumigatus (setting [8]); above 64 µg/mL in the experiment with Candida albicans (setting [10]); 16 µg/mL (≈ 17.1 µM) with Aspergillus niger (setting [8]); 8 µg/mL (≈ 8.54 µM) with Lomentospora prolificans (setting [8]). Further, the results for the MIC with Candida lusitaniae (setting [8]) and in the experiment with Torulopsis glabrata (setting [8]) were 8 µg/mL (≈ 8.54 µM) and above 64 µg/mL, respectively. Also, the Mechanism result with C. auris (Candida auris 467/2015), with C. auris (Candida auris 468/2015), in the experiment on C. auris (Candida auris 469/2015), in the experiment on C. auris (Candida auris 470/2015), in the experiment on C. auris (Candida auris 471/2015) and in the experiment with C. albicans [2] (Candida albicans DPL1006 CAS^R) was “Fungicidal” throughout. For the same molecule, the Mechanism result in the experiment on C. albicans [2] (Candida albicans DPL1007 CAS^R), with C. albicans [2] (Candida albicans DPL1009 CAS^R), in the experiment on C. albicans [2] (Candida albicans DPL1010 CAS^R), in the experiment on C. albicans [2] (Candida albicans DPL1011 CAS^R) and in the experiment with C. albicans [2] (Candida albicans SC5314) was “Fungicidal” in each case. Moreover, in the experiment on Aspergillus fumigatus (A. fumigatus 21-23, drug alone, lowest concentration without growth), the MIC100 was above 64 µg/mL. Further, the “reduction of fungal burden in the lungs” value in the experiment with A. fumigatus [3] (BRI 50 mg/kg) was “approximately 50%”. Also, the “metabolic activity (Alamar blue) in presence vs absence of BRI” value in the experiment with A. fumigatus [4] is “significantly decreased metabolic activity”.

Regarding `CC[C@H](C)C[C@H](C)CCCCCCCCC(=O)N[C@H]1C[C@@H](O)[C@@H](NCCN)NC(=O)[C@@H]2[C@@H](O)CCN2C(=O)[C@H]([C@H](O)CCN)NC(=O)[C@H]([C@H](O)[C@@H](O)c2ccc(O)cc2)NC(=O)[C@@H]2C[C@@H](O)CN2C(=O)[C@H]([C@@H](C)O)NC1=O` [CAS, caspofungin], the “CAS concentration for complete inhibition of metabolic activity (XTT) and survival (CFUs)” value in the experiment on C. albicans [5] was around 0.125 µg/mL. In experiment [6], this molecule showed an A. fumigatus killing of 25%. The “reduction of fungal burden in the lungs” value with A. fumigatus [3] (CAS 1 mg/kg) was “approximately 50%”.
